How the values were obtained:
[1] = test system: intracellular NO level in hMSC; experiment: Effect of the EGFR inhibitor on the intracellular NO levels, hMSC; format: cell-based; conditions: hMSCs; 20 μM; 12-24 hrs; cell lysate
Procedure: (§1) The cultured HaCaT, HUVEC and hMSC were respectively digested, counted, and seeded into 6-well plates with 100,000-600,000 cells per well. After the cells were attached, the supernatant was discarded, and 1.5 mL of the EGFR inhibitor solution diluted to the final concentration as shown in Table 7 was added into the wells of the 6-well plates, wherein no additional solution was added to the blank control group, except the normal replacement of basic medium. After 12-24 hrs of addition of the EGFR inhibitor, the supernatant was discarded, while 100 μL of a cell lysis solution was added to the cells in the 6-well plates (specifically for the detection of nitric oxide, 53090, Beyotime Inc.). After 30 s of lysis, 50 μL cell lysis solution was taken. The NO level in the cell lysis solution was detected by using NO assay kit (S0021, Beyotime Inc.). GraphPad Prism 6.0 Software and t-test were used to carry out a statistic analysis of the results and plot a graph.

[2] = test system: intracellular NO level in HUVEC; experiment: Effect of the EGFR inhibitor on the intracellular NO levels, HUVEC; format: cell-based, human; conditions: 20 μM, 12-24 hrs, cell lysate
Procedure: as §1

[3] = test system: intracellular NO level in HaCaT; experiment: Effect of the EGFR inhibitor on the intracellular NO levels, HaCaT; format: cell-based; conditions: 20 μM, 12-24 hrs, cell lysate
Procedure: as §1

[4] = test system: small intestine epithelial cells FHs 74 Int; experiment: Proliferative toxicity of EGFR inhibitor to small intestine epithelial cell FHs 74 Int and ameliorating effect of nitric oxide releasing agent (CCK-8); format: cell-based; conditions: one merged result for Erlotinib 10 μM, Afatinib 5 μM, Osimertinib 20 μM, agent 200 μM, 48 hrs
Procedure: The cultured small intestine epithelial cells FHs 74 Int were digested, counted, and seeded to a 96-well plate with 5000-10000 cells per well. After the cells were attached, the supernatant was discarded. The wells were divided to the blank control group, the EGFR inhibitor group, the EGFR inhibitor+nitric oxide releasing agent group and blank solvent control group.
EGFR inhibitor group: 100 μL of the EGFR inhibitor solution was added (the final concentration was listed in Table 3, all the EGFR inhibitor solution are DMSO solution); the EGFR inhibitor+nitric oxide releasing agent group: the EGFR inhibitor solution and the nitric oxide releasing agent solution were added (the final concentrations of the EGFR inhibitor and the nitric oxide releasing agent were listed in Table 3, and depending on the solubility of the nitric oxide releasing agents, the nitric oxide releasing agent solution was ethanol solution or aqueous solution); the blank control group: except the normal replacement of medium, no additional solution was added; a plurality of blank solvent control group: an equal volume of the same type of solvent as the corresponding EGFR inhibitor group or the EGFR inhibitor+nitric oxide releasing agent group was added. […] After additional 48 hrs of culture, the survival rate of cells was determined by Cell Counting Kit-8 (CCK-8) assay kit (C0037, Shanghai Beyotime Biotechnology Inc., Beyotime Biotechnology), to calculate the proliferative toxicity of the EGFR inhibitor to cells and the ameliorating effect of the nitric oxide releasing agent to the proliferative toxicity. GraphPad Prism 6.0 Software and t-test were used to carry out a statistic analysis of the results and plot a graph.

[5] = test system: human foreskin fibroblasts (HFF); experiment: Proliferative toxicity of EGFR inhibitor on HFF and ameliorating effect of nitric oxide releasing agent (CCK-8); format: cell-based; conditions: one merged result for Erlotinib 10 μM, Afatinib 5 μM, Osimertinib 20 μM, agent 200 μM, 48 hrs
Procedure: The cultured human foreskin fibroblasts (HFF) were digested, counted, and seeded to a 96-well plate with 5000-10000 cells per well. After the cells were attached, the supernatant was discarded. The wells were divided to the blank control group, the EGFR inhibitor group, the EGFR inhibitor+nitric oxide releasing agent group and blank solvent control group. EGFR inhibitor group: 100 μL of the EGFR inhibitor solution was added (the final concentration was listed in Table 6, the EGFR inhibitor solutionare DMSO solution); the EGFR inhibitor+nitric oxide releasing agent group: the EGFR inhibitor solution and the nitric oxide releasing agent solution were added (the final concentrations of the EGFR inhibitor and the nitric oxide releasing agent were listed in Table 6, and depending on the solubility of the nitric oxide releasing agents, the nitric oxide releasing agent solution was ethanol solution or aqueous solution); the blank control group: except the normal replacement of medium, no additional solution was added; a plurality of blank solvent control group: an equal volume of the same type of solvent as the corresponding EGFR inhibitor group or the EGFR inhibitor+nitric oxide releasing agent group was added. […] After additional 48 hrs of culture, the survival rate of cells was determined by Cell Counting Kit-8 (CCK-8) assay kit (C0037, Shanghai Beyotime Biotechnology Inc., Beyotime Biotechnology), to calculate the proliferative toxicity of the EGFR inhibitor to cells and the ameliorating effect of the nitric oxide releasing agent to the proliferative toxicity. GraphPad Prism 6.0 Software and t-test were used to carry out a statistic analysis of the results and plot a graph.

[6] = test system: Human Oral Keratinocytes (HOK); experiment: Proliferative toxicity of EGFR inhibitor on Human Oral Keratinocytes (HOK) and ameliorating effect of nitric oxide releasing agent (CCK-8); format: cell-based; conditions: one merged result for Erlotinib 10 μM, Afatinib 5 μM, Osimertinib 20 μM, agent 200 μM, 48 hrs
Procedure: The cultured Human Oral Keratinocytes (HOK) were digested, counted, and seeded to a 96-well plate with 5000-10000 cells per well. After the cells were attached, the supernatant was discarded. The wells were divided to the blank control group, the EGFR inhibitor group, the EGFR inhibitor+nitric oxide releasing agent group and blank solvent control group. EGFR inhibitor group: 100 μL of the EGFR inhibitor solution was added (the final concentration was listed in Table 4, all the EGFR inhibitor solution that are DMSO solution); the EGFR inhibitor+nitric oxide releasing agent group: the EGFR inhibitor solution and the nitric oxide releasing agent solution were added (the final concentrations of the EGFR inhibitor and the nitric oxide releasing agent were listed in Table 4, and depending on the solubility of the nitric oxide releasing agents, the nitric oxide releasing agent solution was ethanol solution or aqueous solution); the blank control group: except the normal replacement of medium, no additional solution was added; a plurality of blank solvent control group: an equal volume of the same type of solvent as the corresponding EGFR inhibitor group or the EGFR inhibitor+nitric oxide releasing agent group was added. […] After additional 48 hrs of culture, the survival rate of cells was determined by Cell Counting Kit-8 (CCK-8) assay kit (C0037, Shanghai Beyotime Biotechnology Inc., Beyotime Biotechnology), to calculate the proliferative toxicity of the EGFR inhibitor to cells and the ameliorating effect of the nitric oxide releasing agent to the proliferative toxicity. GraphPad Prism 6.0 Software and t-test were used to carry out a statistic analysis of the results and plot a graph.

[7] = test system: skin cells HaCaT; experiment: Proliferative toxicity of EGFR inhibitor on skin cells HaCaT and ameliorating effect of nitric oxide releasing agents (CCK-8); format: cell-based; conditions: 48 hrs
Procedure: The cultured skin cell HaCaT were digested, counted, and seeded in a 96-well plate with 5000-10000 cells per well. After the cells were attached, the supernatant was discarded. The wells were divided to the blank control group, the EGFR inhibitor group, the EGFR inhibitor+nitric oxide releasing agent group and the blank solvent control group. The EGFR inhibitor group: 100 μL of the EGFR inhibitor solution was added (the final concentration was shown in Table 2; Cetuximab was in an aqueous solution, besides which each of other EGFR inhibitors were in a solution containing DMSO); the EGFR inhibitor+nitric oxide releasing agent group: the EGFR inhibitor solution and the nitric oxide releasing agent solution were added (the final concentration of the EGFR inhibitor and nitric oxide releasing agent were shown in Table 2, and depending on the solubility of the nitric oxide releasing agent, the nitric oxide releasing agent solution was an ethanol solution or an aqueous solution); the blank control group: except the normal replacement of the medium, no additional solution was added; a plurality of blank solvent control groups: an equal volume of the same type of solvent as the corresponding EGFR inhibitor group or the EGFR inhibitor+nitric oxide releasing agent was added. […] After additional culture for 48 hrs, the survival rate of cells was measured by Cell Counting Kit-8 (CCK-8) assay kit (C0037, purchased from Shanghai Beyotime Biotechnology Inc.) to calculate the proliferative toxicity of the EGFR inhibitor to cells and the ameliorating effect of the nitric oxide releasing agent to the proliferative toxicity.

[8] = test system: human umbilical vein endothelial cells (HUVEC); experiment: Proliferative toxicity of EGFR inhibitor on HUVEC and ameliorating effect of nitric oxide releasing agent (CCK-8); format: cell-based; conditions: 48 hrs
Procedure: The cultured human umbilical vein endothelial cells (HUVECs) were digested, counted, and seeded to a 96-well plate with 5000-10000 cells per well. After the cells were attached, the supernatant was discarded. The wells were divided to the blank control group, the EGFR inhibitor group, the EGFR inhibitor+nitric oxide releasing agent group and blank solvent control group.
EGFR inhibitor group: 100 μL of the EGFR inhibitor solution was added (the final concentration was listed in Table 5, the EGFR inhibitor solution are DMSO solution); the EGFR inhibitor+nitric oxide releasing agent group: the EGFR inhibitor solution and the nitric oxide releasing agent solution were added (the final concentrations of the EGFR inhibitor and the nitric oxide releasing agent were listed in Table 5, and depending on the solubility of the nitric oxide releasing agents, the nitric oxide releasing agent solution was ethanol solution or aqueous solution); the blank control group: except the normal replacement of medium, no additional solution was added; a plurality of blank solvent control group: an equal volume of the same type of solvent solution as the corresponding EGFR inhibitor group or the EGFR inhibitor+nitric oxide releasing agent group was added. The blank solvent control group was used for data correction to eliminate the effect of solvent to the result in the EGFR inhibitor group and the EGFR inhibitor+nitric oxide releasing agent group. After additional 48 hrs of culture, the survival rate of cells was determined by Cell Counting Kit-8 (CCK-8) assay kit (C0037, Shanghai Beyotime Biotechnology Inc., Beyotime Biotechnology), to calculate the proliferative toxicity of the EGFR inhibitor to cells and the ameliorating effect of the nitric oxide releasing agent to the proliferative toxicity. GraphPad Prism 6.0 Software and t-test were used to carry out a statistic analysis of the results and plot a graph. […]

[9] = Afatinib 5 μM + nitric oxide releasing agent 200 μM
[10] = Cetuximab 100-200 μg/mL + nitric oxide releasing agent 200 μM
[11] = Erlotinib 10 μM + nitric oxide releasing agent 200 μM
[12] = Osimertinib 20 μM + nitric oxide releasing agent 200 μM

Row | SMILES | Cell Survival Rate: percentage of viable cells increased vs EGFR inhibitor group [4] | Cell Survival Rate: percentage of viable cells increased vs EGFR inhibitor group [5] | Cell Survival Rate: percentage of viable cells increased vs EGFR inhibitor group [6] | Cell Survival Rate: percentage of viable cells increased vs EGFR inhibitor group [7, 9] | Cell Survival Rate: percentage of viable cells increased vs EGFR inhibitor group [7, 10] | Cell Survival Rate: percentage of viable cells increased vs EGFR inhibitor group [7, 11] | Cell Survival Rate: percentage of viable cells increased vs EGFR inhibitor group [7, 12] | other results
1 | C#Cc1cccc(Nc2ncnc3cc(OCCOC)c(OCCOC)cc23)c1 [Erlotinib] | – | – | – | – | – | – | – | NO Level: percentage of NO concentration decreased vs control group [1]: 30%; NO Level: percentage of NO concentration decreased vs control group [2]: 22%; NO Level: percentage of NO concentration decreased vs control group [3]: 28%
2 | CC(C)CCON=O [Isoamyl nitrite, isoamyl nitrite] | 25%-35% | 30-80% | 25-35% | by 35-45% | by 35-45% | by 75-85% | by 35-45% | –
3 | CCOC(=O)[N-]c1cn(N2CCOCC2)n[o+]1 [Molsidomine] | 15%-35% | 20-70% | 20-30% | by 35-45% | – | by 75-85% | by 35-45% | –
4 | NCCN(CCN)[N+]([O-])=NO [NOC-18, 3,3-di (aminoethyl)-1-hydroxyl-2-carbonyl-1-triazene] | – | – | – | by 35-45% | by 45-55% | by 75-85% | by 25-35% | –
5 | O=C(NCCO[N+](=O)[O-])c1cccnc1 [Nicorandil, nicorandil] | – | – | – | by 65-75% | – | by 85-95% | by 30-40% | –
6 | O=[N+]([O-])OCC(CO[N+](=O)[O-])O[N+](=O)[O-] [Nitroglycerin, nitroglycerin] | 15%-35% | 30-90% | 20-30% | by 85-95% | by 35-45% | by 65-75% | by 35-45% | Cell Survival Rate: percentage of viable cells increased vs EGFR inhibitor group ([8]; Afatinib 5 μM + agent 200 μM): 15-20%; Cell Survival Rate: percentage of viable cells increased vs EGFR inhibitor group ([8]; Erlotinib 10 μM + agent 200 μM): 20-30%; Cell Survival Rate: percentage of viable cells increased vs EGFR inhibitor group ([8]; Osimertinib 20 μM + agent 200 μM): 90-100%; Cell Survival Rate: percentage of viable cells increased vs EGFR inhibitor group ([7]; Canertinib 10 μM + nitric oxide releasing agent 200 μM): by 55-65%; Cell Survival Rate: percentage of viable cells increased vs EGFR inhibitor group ([7]; EAI045 20 μM + nitric oxide releasing agent 200 μM): by 65-75%; Cell Survival Rate: percentage of viable cells increased vs EGFR inhibitor group ([7]; Gefitinib 10 μM + nitric oxide releasing agent 200 μM): by 65-75%; Cell Survival Rate: percentage of viable cells increased vs EGFR inhibitor group ([7]; Icotinib 10 μM + nitric oxide releasing agent 200 μM): by 65-75%; Cell Survival Rate: percentage of viable cells increased vs EGFR inhibitor group ([7]; Lapatinib 10 μM + nitric oxide releasing agent 200 μM): by 55-65%; Cell Survival Rate: percentage of viable cells increased vs EGFR inhibitor group ([7]; Nazartinib 10 μM + nitric oxide releasing agent 200 μM): by 55-65%; Cell Survival Rate: percentage of viable cells increased vs EGFR inhibitor group ([7]; Neratinib 10 μM + nitric oxide releasing agent 200 μM): by 65-75%; Cell Survival Rate: percentage of viable cells increased vs EGFR inhibitor group ([7]; Olmutinib 10 μM + nitric oxide releasing agent 200 μM): by 35-45%; Cell Survival Rate: percentage of viable cells increased vs EGFR inhibitor group ([7]; Poziotinib 10 μM + nitric oxide releasing agent 200 μM): by 55-65%; Cell Survival Rate: percentage of viable cells increased vs EGFR inhibitor group ([7]; Rociletinib 10 μM + nitric oxide releasing agent 200 μM): by 65-75%; Cell Survival Rate: percentage of viable cells increased vs EGFR inhibitor group ([7]; Sapitinib 10 μM + nitric oxide releasing agent 200 μM): by 55-65%; Cell Survival Rate: percentage of viable cells increased vs EGFR inhibitor group ([7]; Vandetanib 10 μM + nitric oxide releasing agent 200 μM): by 55-65%; Cell Survival Rate: percentage of viable cells increased vs EGFR inhibitor group ([7]; Varlitinib 10 μM + nitric oxide releasing agent 200 μM): by 35-45%

From US10583111B2, “Method for preventing or treating diseases associated with the inhibition of EGFR” (priority 2017, dated 2020)
